Literature values in patent US20160114057A1, “MODULAR PROTEIN DRUG CONJUGATE THERAPEUTIC” (ZYMEWORKS INC., priority 2013, published 2016).
Like-named read-outs stand apart in the source and are kept apart here. Where a SMILES comes first, the peptide text is derived from it. [ ]: non-standard residue; d: D form. Aoe = N[C@@H](CCCCCC(=O)[C@@H]1CO1)C(=O)O; Aib = CC(C)(N)C(=O)O

Legend:
[1] = molecular target: histone deacetylase; conditions: inhibits histone deacetylase
[2] = test system: tumors in animal models; conditions: tumor types as in Table 1
[3] = test system: A431 (EC)
[4] = test system: various tumor cell lines; conditions: P388, K562, A431, MKN28; read-out: IC50 (for all)
[5] = test system: P388
[6] = test system: K562 (CML)
[7] = test system: MKN28 (GI)
[8] = test system: U-937 (lymphoma)
[9] = test system: A-549 (epidermoid carcinoma)
[10] = test system: A-498 (kidney)
[11] = test system: SK-OV-3 (ovary)
[12] = test system: A549 (lung)
[13] = test system: lung
[14] = test system: colon
[15] = test system: KB; conditions: KB
[16] = not given; remark: listed apart in the source
[17] = test system: A2780
[18] = test system: HL-60
[19] = i.p. in mice
[20] = test system: HT-29 (colon); conditions: cell culture
[21] = test system: DLD-1
[22] = test system: colon 26
[23] = test system: MKM-45
[24] = test system: PC-13
[25] = test system: NCI tumor panel (60 cell line); conditions: NCI tumor panel; range over cell lines
[26] = human
[27] = not given; remark: listed apart in the source
[28] = test system: MEL-28; conditions: cell culture
[29] = test system: CD33+ cells (HL-60, NOMO-1, and NKM-1); conditions: at 100 ng/mL

CC1(C)NC(=O)[C@H](CCCCCC(=O)[C@@H]2CO2)NC(=O)[C@H]2CCCN2C(=O)[C@H](Cc2ccccc2)NC1=O [Chlamydocin] (cyclo([Aib]F[dP][Aoe]))
IC50 [1]: 1.3 nM

C=CCNC1=C2C[C@@H](C)C[C@H](OC)[C@H](O)[C@@H](C)/C=C(\C)[C@H](OC(N)=O)[C@@H](OC)/C=C\C=C(/C)C(=O)NC(=CC1=O)C2=O [Variant 17-AAG]
activity in animal models (in words) [2]: models active | t1/2 (i.v.): ~1.5 h

COc1c(O)c2c(c3cc(C(=O)N4CCc5c4c(O)c(OC)c4[nH]c(C(=O)N6CC7CC78C6=CC(=O)c6[nH]cc(C)c68)cc54)[nH]c13)CCN2C(C)=O (centres unmarked) [Gilvusmycin]
IC50 [3]: 0.72 A431 (EC) ng/mL | IC50 [4]: < 1 nM | IC50 [5]: 0.08 P388 ng/mL | IC50 [6]: 0.86 K562 (CML) ng/mL | IC50 [7]: 0.75 MKN28 (GI); ng/mL

C/C1=C\C(C)C(C)OC(=O)CC(c2ccc(O)cc2)NC(=O)C(Cc2c(Cl)[nH]c3ccccc23)N(C)C(=O)C(C)NC(=O)C(C)C1 (centres unmarked) [Chondramide D]
IC50 [8]: 3 nM | IC50 [9]: 5 nM | IC50 [10]: 15 nM | IC50 [11]: 5 nM | IC50 ([12]; A549 (lung), read-out: Activity (IC50)): 14 nM

C=C1C[C@@H]2CCO[C@H]3[C@@H]4C[C@H]5CC[C@H](CC(=O)C[C@@H]6[C@@H](OC)[C@@H](C[C@H](O)CO)O[C@H]6C[C@H]6O[C@@H](CC[C@@H]1O2)C[C@@H](C)C6=C)O[C@@H]5[C@@H]1OCC[C@@H]3O[C@H]41 [Halichondrin B analogs]
activity in animal models (in words) [2]: active (tumor

CC[C@@H]1/C=C/C=C/C[C@H](C)[C@@H](O)[C@](C)(O)C(=O)[C@H](C)[C@@H](O)[C@H](C)C(=O)[C@H](C)[C@@H](O)[C@H](C)/C=C/C(=O)O[C@H]2[C@@H](C)[C@@H](CC1)O[C@@]1(CC[C@@H](C)[C@@H](C[C@H](C)O)O1)[C@@H]2CC [NK-1301129]
Activity (IC50) [13]: 8.5 ng/mL lung | Activity (IC50) [14]: 25 ng/mL colon

CCSC1SCC2C(=O)N(C)C3(CC3C)C(=O)OCC(NC(=O)c3nc4ccccc4cc3O)C(=O)NC(C)C(=O)N(C)C1C(=O)N(C)C1(CC1C)C(=O)OCC(NC(=O)c1nc3ccccc3cc1O)C(=O)NC(C)C(=O)N2C (centres unmarked) [SW-163E]
IC50 ([5]; read-out: Activity (IC50)): 0.3 nM | IC50 ([15]; read-out: Activity (IC50)): 0.4 nM | Toxicity (in words) [16]: low toxicity (mice | IC50 [17]: 0.2 nM | IC50 [18]: 1.3 nM | IC50 [14]: 1.6 nM

NC[C@H]1[C@H]2CN3C(=O)c4cccn4[C@H]4NC(N)=NC43[C@H]2[C@@]2(N=C(N)N[C@@H]2O)[C@H]1Cl (some centres unmarked) [Palauamine]
LD50 [19]: is 13 mg/Kg | IC50 [20]: 2 HT-29 (colon) micrograms/mL | IC50 ([5]; cell culture): 0.1 P388 micrograms/mL | IC50 ([15]; cell culture): 10 KB micrograms/mL | IC50 ([12]; cell culture, A549): 0.2 A549 (lung) micrograms/mL

CCC1/C=C/C=C/CC(C)C(O)C(C)(O)C(=O)CC(O)C(C)C(O)C(C)C(O)C(C)/C=C/C(=O)OC2C(C)C(CC1)OC1(CCC(C)C(CC(C)O)O1)C2C (centres unmarked) [BE-56384]
IC50 [21]: 34 DLD-1 ng/mL | IC50 [22]: 0.29 colon 26 ng/mL | IC50 [23]: 0.12 MKM-45 ng/mL | IC50 [24]: 0.12 PC-13 ng/mL | IC50 [5]: 0.1 P388 ng/mL

C/C=C1\NC(=O)[C@H]2CSSCC/C=C/[C@H](CC(=O)N[C@H](C(C)C)C(=O)N2)OC(=O)[C@H](C(C)C)NC1=O [FR-901228]
t1/2 (human): t1/2 of 8 hrs | Toxicity (in words) [16]: toxicity, lymphoid | IC50 [25]: 0.56 to 4.1 nM | dose limiting toxicity [26]: (human) 18 mg/Kg; | toxic dose (LD50) ([27]; ip): 6.4 mg/kg | toxic dose (LD50) ([27]; iv): 10 mg/kg

C=CC(C)(C)OC[C@H]1NC(=O)[C@H]([C@@H](C)OC(C)(C)C=C)NC(=O)C2CSC(N2)[C@@H](Cc2ccccc2)NC(=O)[C@@H]2CCCN2C(=O)C(C)NC(=O)[C@H]([C@@H](C)CC)NC1=O (some centres unmarked) [Trunkamide A]
IC50 [20]: 0.5 HT-29; micrograms/mL | IC50 ([5]; cell culture): 0.5 P388; micrograms/mL | IC50 [28]: 1.0 MEL-28 micrograms/mL | IC50 ([12]; cell culture, A549): 0.5 A549; micrograms/mL

gemtuzumab ozogamicin
Toxicity (in words) [16]: mild toxicity | killing of CD33+ cells (in words) [29]: Kills CD33+ cells
